One test deals with Candida albicans strains. In words: Example N: MIC and MFC (CLSI) against Candida albicans. The class given is cell-based. As to conditions: Candida albicans, three clinical strains; for MIC: read-out: MIC 100%, Range. As for the experimental part: (§1) The objective of this study was to determine the antifungal activity of eight experimental compounds against a representative panel of fungal isolates, including Candida albicans, C. glabrata, Cryptococcus neoformans, Trichophyton rubrum, Aspergillus fumigatus, and Rhizopus spp. Antifungal activity was measured by minimum inhibitory concentration (MIC) and minimum fungicidal concentration (MFC).
(§2) Three recent clinical strains of each species, taken from the culture collection at the Center for Medical Mycology, Case Western University, were tested.
(§3) Compounds in powder form were dissolved in DMSO. Serial dilutions of each compound were then prepared in RPMI-1640 in a range of […].
(§4) MIC testing was performed according to the CLSI M27-A3 and M38-A2 standards for the susceptibility testing of yeasts and filamentous fungi, respectively (1, 2). Test isolates were subcultured from frozen slants onto potato dextrose agar plates (Trichophyton rubrum was subcultured onto oatmeal plates for conidia production) and checked for purity. Inocula were then prepared in RPMI-1640 (YNB for Cryptococcus) to a concentration of 0.5-2.5×10^3 colony-forming units (CFU)/ml or 0.4-5×10^4 conidia/ml for yeast and filamentous fungi, respectively.
(§5) MFC determinations were performed according to the modifications previously described by Canton et al. and Ghannoum and Isham. (3, 4) Specifically, the total contents of each clear well from the MIC assay were subcultured onto potato dextrose agar. To avoid antifungal carryover, the aliquots were allowed to soak into the agar and then were streaked for isolation once dry, thus removing the cells from the drug source.

The next test has as its system Candida glabrata strains. In words: Example N: MIC and MFC (CLSI) against Candida glabrata. It is filed as cell-based. The conditions noted are these: Nakaseomyces glabratus; for MIC: read-out: MIC 100%; for MFC: range over Candida glabrata strains, in 48 hr. Here is the method: as §1, §2, §3, §4, §5
Test [1] concerns Cryptococcus neoformans strains. In words: Example N: MIC and MFC (CLSI) against Cryptococcus neoformans. It is filed as cell-based. As to conditions: Cryptococcus neoformans, three clinical strains; for MIC: read-out: MIC 100%, Range, incubated for 72 hrs. As for the experimental part:
as §1, §2, §3, §4, §5

Test [2] concerns Aspergillus fumigatus strains. The test can be described thus: Example N: MIC and MFC (CLSI) against Aspergillus fumigatus. The arrangement: MIC at 50% inhibition: unit not given here. It is filed as cell-based. As to conditions: for MIC50 / MIC: Aspergillus fumigatus; for MIC: read-out: MIC 100%; for MFC: range over Aspergillus fumigatus strains, in 48 hr. As for the experimental part:
as §1, §2, §3, §4, §5

Another test concerns Rhizopus strains. The test can be described thus: Example N: MIC and MFC (CLSI) against Rhizopus. The class given is cell-based, Rhizopus spp. The conditions noted are these: for MIC50 / MIC: Rhizopus; for MIC: read-out: MIC 100%; for MFC: range over Rhizopus strains, in 48 hr. As for the experimental part:
as §1, §2, §3, §4, §5

Test [3] has as its system Trichophyton rubrum strains. The test can be described thus: Example N: MIC and MFC (CLSI) against Trichophyton rubrum. The class given is cell-based. As to conditions: for MIC: read-out: MIC 100%, Range, incubated for 96 hrs, three clinical strains; for MFC: three clinical strains. Here is the method: as §1, §2, §3, §4, §5
In a further test the test system is THP-1 cells. The test can be described thus: Example C: compound screen, viable THP-1 cell count after 5 hours +/- LPS. It is filed as cell-based, Human. As to conditions: for ability to inactivate pro-inflammatory THP-1 cells, in words (relative to benchmark AC): LPS-treated THP-1 cells. The text has this: Background: THP-1 is a human acute myeloid leukemia (AML) cell line that can be induced into a macrophage-like cell with vitamin-D3 (vit-D3). In the macrophage, LPS (lipopolysaccharide; endotoxin) stimulation of toll-like receptor 4 (TLR-4) leads to NF-κB activation and secretion of inflammatory cytokines but also the priming of programmed death pathways through RIP and Caspase 8. The balance of this complex regulatory network is dependent on highly specific kinases, enzymes that require ATP. Disruption of either cytosolic pH or ATP availability/energy level uncouples this control network and the can macrophage shift away from production of inflammatory cytokines towards a programmed death event, which has the net effect of limiting inflammatory damage.

≈ marks a conversion by molar mass, not a printed value. Read-outs that look alike come from different tables or passages of the source.

In the case of `COc1ccc(OCCCCCCCCNc2ncnc3ccccc23)cc1` [AE, N-[8-(4-Methoxyphenoxy)octyl]quinazolin-4-amine], the minimal inhibitory concentration (MIC) in the test with Candida albicans strains (24 hr) is 0.5 to 4 µg/mL (≈ 1.32 to 10.5 µM); in the test on Candida albicans strains (48 hr), 4 µg/mL (≈ 10.5 µM); in the test with Candida glabrata strains (24 h), 4 µg/mL (≈ 10.5 µM); in the test with Candida glabrata strains (48 h) it was 4 to 8 µg/mL (≈ 10.5 to 21.1 µM); in test [1], 0.25 to 4 µg/mL (≈ 0.659 to 10.5 µM); in test [2] (24 h), 0.12 to 1 µg/mL (≈ 0.316 to 2.64 µM). In addition, the MIC in test [2] (48 h) lay in the range of 1 to 4 µg/mL (≈ 2.64 to 10.5 µM); in the test on Rhizopus strains (24 h) it was 1 to 2 µg/mL (≈ 2.64 to 5.27 µM); in the test on Rhizopus strains (48 h), 1 to 4 µg/mL (≈ 2.64 to 10.5 µM); in test [3], 4 to 16 µg/mL (≈ 10.5 to 42.2 µM). Moreover, the MFC in the test with Candida albicans strains (48 hr) is 8 to 64 µg/mL (≈ 21.1 to 169 µM); with Candida glabrata strains, 16 to 64 µg/mL (≈ 42.2 to 169 µM); in test [1], 1 to 8 µg/mL (≈ 2.64 to 21.1 µM); in test [2], > 64 µg/mL; against Rhizopus strains it was 64 µg/mL (≈ 169 µM); in test [3] it was 4 to 16 µg/mL (≈ 10.5 to 42.2 µM). For the same compound, the MIC50 was 4 µg/mL (≈ 10.5 µM) in the test with Candida glabrata strains (24 h); 4 to 8 µg/mL (≈ 10.5 to 21.1 µM) against Candida glabrata strains (48 h); 0.12 to 0.5 µg/mL (≈ 0.316 to 1.32 µM) in test [2] (24 h); 0.5 to 2 µg/mL (≈ 1.32 to 5.27 µM) in test [2] (48 h); < 0.12 µg/mL with Rhizopus strains (24 h); 1 to 2 µg/mL (≈ 2.64 to 5.27 µM) against Rhizopus strains (48 h). The minimum inhibitory concentration (MIC) at 50% inhibition was <0.12-0.5 in test [2] (24 hrs) and < 0.12 µg/mL with Rhizopus strains (24 hrs). For the same compound, the “MIC at 100% inhibition” value in test [2] (24 hrs) is given as <0.12-1.

Consider `c1ccc(Oc2cccc(CNc3ccnc4ccccc34)c2)cc1` [AF, N-(3-Phenoxybenzyl)quinolin-4-amine], for which the “Reduction in viable THP-1 cell count (percent change) from 0 hours, Mean ± SE” value in the test on THP-1 cells (Compound (0.1 μM), No LPS) was −8.99 ± 2.00%; with THP-1 cells (Compound (0.1 μM), Plus LPS), −27.32 ± 4.69%; in the test on THP-1 cells (Compound (1.0 μM), No LPS), −6.02 ± 2.31%; in the test with THP-1 cells (Compound (1.0 μM), Plus LPS), −44.82 ± 2.46%. Also, the “ability to inactivate pro-inflammatory THP-1 cells, in words (relative to benchmark AC)” value with THP-1 cells is on record as “higher activity than the active benchmark compound AC”.

For `CCCCOCCCCCCCCCCNc1ccnc2ccccc12` [AM, N-(10-Butoxydecyl)quinolin-4-amine], the “Reduction in viable THP-1 cell count (percent change) from 0 hours, Mean ± SE” value is −5.57 ± 2.67% in the test with THP-1 cells (Compound (0.1 μM), No LPS); −19.80 ± 1.96% in the test on THP-1 cells (Compound (0.1 μM), Plus LPS); −8.47 ± 3.31% in the test with THP-1 cells (Compound (1.0 μM), No LPS); −44.05 ± 1.38% in the test with THP-1 cells (Compound (1.0 μM), Plus LPS). In addition, the “ability to inactivate pro-inflammatory THP-1 cells, in words (relative to benchmark AC)” value in the test on THP-1 cells is on record as “higher activity than the active benchmark compound AC”. Moreover, the minimal inhibitory concentration (MIC) in the test with Candida albicans strains (24 hr) fell in the range of 2 to 4 µg/mL (≈ 5.61 to 11.2 µM); in the test on Candida albicans strains (48 hr), 2 to 4 µg/mL (≈ 5.61 to 11.2 µM); in the test on Candida glabrata strains (24 h), 2 to 4 µg/mL (≈ 5.61 to 11.2 µM); in the test with Candida glabrata strains (48 h), 2 to 4 µg/mL (≈ 5.61 to 11.2 µM); in test [1], 2 to 4 µg/mL (≈ 5.61 to 11.2 µM); in test [2] (24 h), 1 to 2 µg/mL (≈ 2.8 to 5.61 µM). The minimal inhibitory concentration (MIC) in test [2] (48 h) is 4 µg/mL (≈ 11.2 µM); in the test on Rhizopus strains (24 h), 2 to 4 µg/mL (≈ 5.61 to 11.2 µM); with Rhizopus strains (48 h), 4 µg/mL (≈ 11.2 µM); in test [3], 0.5 to 4 µg/mL (≈ 1.4 to 11.2 µM). Besides, the MFC against Candida albicans strains (48 hr) is 4 µg/mL (≈ 11.2 µM); with Candida glabrata strains, 4 to 8 µg/mL (≈ 11.2 to 22.4 µM); in test [1], 8 µg/mL (≈ 22.4 µM); in test [2], 4 to 32 µg/mL (≈ 11.2 to 89.7 µM); in the test with Rhizopus strains it was 8 to 32 µg/mL (≈ 22.4 to 89.7 µM); in test [3], 1 to 4 µg/mL (≈ 2.8 to 11.2 µM). Moreover, the MIC50 with Candida glabrata strains (24 h) lay in the range of 1 to 2 µg/mL (≈ 2.8 to 5.61 µM); against Candida glabrata strains (48 h), 2 to 4 µg/mL (≈ 5.61 to 11.2 µM); in test [2] (24 h), 0.5 to 1 µg/mL (≈ 1.4 to 2.8 µM); in test [2] (48 h), 2 to 4 µg/mL (≈ 5.61 to 11.2 µM); with Rhizopus strains (24 h), 1 to 2 µg/mL (≈ 2.8 to 5.61 µM); in the test with Rhizopus strains (48 h) it was 2 to 4 µg/mL (≈ 5.61 to 11.2 µM). The “cidal activity (MFC within 4 dilutions of the MIC), in words” value in test [2] (3 strains) was “cidal against one of the A. fumigatus strains (MRL 28397)”.

(Values after patent US20250034139A1, “AMINE COMPOUNDS HAVING ANTI-INFLAMMATORY, ANTIFUNGAL, ANTIPARASITIC, AND ANTICANCER ACTIVITY” (PHARMA CINQ, LLC, priority 2013, published 2025).)
